# US20240309060A1, “POLYPEPTIDE BAX/NPM INHIBITORS” (TRUSTEES OF BOSTON UNIVERSITY, priority 2023, published 2024)
# Entries after “also recorded” stand apart in the source; their conditions may differ. Square brackets hold non-standard residues; d marks the D form. βAla = NCCC(=O)O
# Key:
# [1] = molecular target: human NPM1 (Homo sapiens, UniProt P06748); assay: Surface plasmon resonance (SPR) binding of peptides to human NPM1; conditions: human NPM1, FIG. 14
# From the text: FIG. 14 depicts a table of the association rate, dissociation rate and the calculated equilibrium dissociation constant for 10 representative therapeutic peptides as measured by Surface Plasmon Resonance (SPR). Mean rates are derived from at least three different peptide concentrations at levels below saturation with human NPM1. Cell survival data are normalized to the negative control (a GFP fragment of similar size to the therapeutic peptides) and represent the mean of at least 3 separate experiments.
# FIG. 15 depicts an on-off rate map. A graph of the off-rate (x-axis) and on-rate (y-axis) of 10 representative peptides from different sets of modified peptides. Diagonal dash-lines represent the equilibrium dissociation constant (KD) estimates the NPM1 binding affinity for each peptide based on the distance to the lines.
# The 3D helical wheel projection scan predicted that 5 of 6 peptide residues (except for L185) with intermediate effects on post-ischemic cell survival cluster in a single surface domain (FIGS. 6 and 7). These surface residues are likely regulating the binding affinity Kd) between the therapeutic peptide and NPM1, the human target protein. Since binding affinity (Kd) between the peptide drug and NPMB1 partly predicts its efficacy, a high throughput, quantitative surface plasmon resonance (SPR) assay was developed.
# SPR was measured for 10 novel polypeptides with select single or double mutations. Both the measured peptide “on” and “off” rates for binding human NPM1 markedly differed (FIG. 15). […] For most modified peptides, greater protection against ischemic stress positively correlated with a low Kd. […] Overall, SPR data combined with cell survival data adequately informs the selection of therapeutic peptides based on the quantifiable effects of R group modifications on these parameters. The combination of SPR binding affinity and cell survival data in vitro effectively rank orders therapeutic peptides for in vivo testing in animals.
# [2] = tested on: primary murine proximal tubule epithelial cells (PTEC); assay: MTT cell survival assay of kidney cells after ischemic stress in vitro induced by metabolic inhibitors; format: cell-based; conditions: for Effect of the residue (single alanine substitution) on cytoprotection / cell survival after ischemic stress: alanine scanning of NPMB1, PTEC, FIG. 2; for Degree of cytoprotection during ischemic stress: alanine scan and pro-helical mutations; for Protection of primary kidney proximal tubule cells from ischemic stress (relative kidney cell survival rate): 70 min ischemic stress, metabolic inhibitors, vs non-specific GFP fragment, normalized to baseline, FIG. 4; for Viability of primary murine kidney cells after ischemic stress: ischemic stress induced by metabolic inhibitors, FIGS. 5, 7
# Experimental: FIG. 2 depicts an NPMB1 Alanine Scan. Relative kidney cell survival rate after 70 min ischemic stress in vitro induced by metabolic inhibitors in the presence of NPMB1 (control) vs. 19 different NPMBx polypeptides with single alanine substitutions (2 additional NPMB1 alanine residues were not substituted). Residue numbers (x axis) reflect Bax sequence that binds human NPM1; Survival data are normalized to NPMB1; post-ischemic kidney cell survival is shown in tertiles: (left-most group: 5-40% survival; middle-group: 55-70% and third group: 80-95%); n=3 separate experiments.
# Relative kidney cell survival rate after 70 min ischemic stress in vitro induced by transient exposure to metabolic inhibitors in the presence of NPMB polypeptides (Agents 2, 5, 7, 14 that reflect alanine scan polypeptides A173, A187, A179, A176) vs. a non—specific polypeptide (GFP fragment). Survival data normalized to baseline (no stress); *P<0.01vs. baseline; t P<0.05 vs. stress; data represent 3 separate experiments; error bars represent mean+SD.
# FIGS. 13A-13B depict the cytoprotective effects of select therapeutic peptides during ischemic stress in vitro. Primary murine proximal tubule epithelial cells (PTEC) were transiently exposed to metabolic inhibitors for 60 min and allowed to recover for 6 hr. to simulate ischemia in vivo; MTT assay estimated cell survival. “Control” (open bars); is a GFP fragment of similar size to the therapeutic peptides was used a negative control; NPMB1 (prototype) serves as a positive control. […] All peptides contained the nuclear localizing sequence (NLS) to enhance peptide delivery to the kidney, a beta linker and both carboxy-and amino terminal modifications to reduce susceptibility to protease digestion; data are mean+standard error; n=3 separate experiments. Figure discloses SEQ ID NOS 139, 134-135, 128, 127, and 138, respectively, in order of appearance.
# Structure activity relationships of NPMB1 derivatives were determined through alanine scanning In these studies, 19 polypeptides were produced using methods shown in FIGS. 8-11 and their effect of kidney cell survival after ischemic stress was characterized using the MTT cell survival assay. Based on determination of relative kidney cell survival rate, polypeptides were grouped according to activity as shown in FIG. 2 (orange: 5-40% survival; blue 55-70% survival, or green 80-95% survival).
# human NPM1, sequence (P06748 whole entry, the tested form may be a part): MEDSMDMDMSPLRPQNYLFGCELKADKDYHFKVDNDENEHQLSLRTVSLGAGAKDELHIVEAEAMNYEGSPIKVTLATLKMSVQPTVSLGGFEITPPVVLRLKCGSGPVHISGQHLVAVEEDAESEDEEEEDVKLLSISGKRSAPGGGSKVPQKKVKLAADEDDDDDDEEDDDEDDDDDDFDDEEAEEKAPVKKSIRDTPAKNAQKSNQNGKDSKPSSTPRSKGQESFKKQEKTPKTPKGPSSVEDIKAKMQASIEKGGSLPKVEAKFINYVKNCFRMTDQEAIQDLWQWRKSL
Substance,Effect of the residue (single alanine substitution) on cytoprotection / cell survival after ischemic stress [2],also measured
Ac-KKRRRKKRRRKKRRRK-Bala-TVTIFVAGVLTASLTIWKKMG-OH (Ac-KKRRRKKRRRKKRRRK[βAla]TVTIFVAGVLTASLTIWKKMG-OH; SMILES CC[C@H](C)[C@H](NC(=O)[C@@H](NC(=O)[C@H](CC(C)C)NC(=O)[C@H](CO)NC(=O)[C@H](C)NC(=O)[C@@H](NC(=O)[C@H](CC(C)C)NC(=O)[C@@H](NC(=O)CNC(=O)[C@H](C)NC(=O)[C@@H](NC(=O)[C@H](Cc1ccccc1)NC(=O)[C@@H](NC(=O)[C@@H](NC(=O)[C@@H](NC(=O)[C@@H](NC(=O)CCNC(=O)[C@H](CCCCN)NC(=O)[C@H](CCCNC(=N)N)NC(=O)[C@H](CCCNC(=N)N)NC(=O)[C@H](CCCNC(=N)N)NC(=O)[C@H](CCCCN)NC(=O)[C@H](CCCCN)NC(=O)[C@H](CCCNC(=N)N)NC(=O)[C@H](CCCNC(=N)N)NC(=O)[C@H](CCCNC(=N)N)NC(=O)[C@H](CCCCN)NC(=O)[C@H](CCCCN)NC(=O)[C@H](CCCNC(=N)N)NC(=O)[C@H](CCCNC(=N)N)NC(=O)[C@H](CCCNC(=N)N)NC(=O)[C@H](CCCCN)NC(=O)[C@H](CCCCN)NC(C)=O)[C@@H](C)O)C(C)C)[C@@H](C)O)[C@@H](C)CC)C(C)C)C(C)C)[C@@H](C)O)[C@@H](C)O)C(=O)N[C@@H](Cc1c[nH]c2ccccc12)C(=O)N[C@@H](CCCCN)C(=O)N[C@@H](CCCCN)C(=O)N[C@@H](CCSC)C(=O)NCC(=O)O) [NPMB1-I-010],–,Kd / NPM1 binding affinity in words [1]: relatively low Kd
Ac-PKKKRKV-Bala-AVTIFVAGVLTASLTIWKKMG-OMe [NPMB1-III-001],moderate cytoprotective effects,–
Ac-PKKKRKV-Bala-QVTIAVAGVLTASLTIWKKMG-OMe [NPMB1-X-009],–,"Cytoprotective effects during ischemic stress in vitro ([2]; peptides 100 nM, metabolic inhibitors 60 min, recovery 6 hr, vs GFP negative control, FIG. 13): most robust protection"
Ac-PKKKRKV-Bala-QVTIFVAGVLTASLTIWKKMG-OMe [NPMB1-V-004],–,Degree of cytoprotection during ischemic stress [2]: highly effective
Ac-PKKKRKV-Bala-TATIFVAGVLTASLTIWKKMG-OMe [NPMB1-III-002],minimal effect on cell survival,Protection of primary kidney proximal tubule cells from ischemic stress (relative kidney cell survival rate) [2]: protect; Degree of cytoprotection during ischemic stress [2]: substantial protection; Viability of primary murine kidney cells after ischemic stress ([2]; listed as Agent 2): substantially improve the viability; also recorded: protect against ischemic injury
Ac-PKKKRKV-Bala-TVAIFVAGVLTASLTIWKKMG-OMe [NPMB1-III-003],critical for cytoprotection,–
Ac-PKKKRKV-Bala-TVTAFVAGVLTASLTIWKKMG-OMe [NPMB1-III-004],moderate cytoprotective effects,–
Ac-PKKKRKV-Bala-TVTIAVAAVLTASLTIWKKMG-OMe [NPMB1-X-008],–,Kd / NPM1 binding affinity in words [1]: relatively low Kd values
Ac-PKKKRKV-Bala-TVTIAVAGVLTASLTIWKKMG-OMe [NPMB1-III-005],minimal effect on cell survival,Protection of primary kidney proximal tubule cells from ischemic stress (relative kidney cell survival rate) [2]: protect; Degree of cytoprotection during ischemic stress [2]: substantial protection; Viability of primary murine kidney cells after ischemic stress ([2]; listed as Agent 5): substantially improve the viability; also recorded: protect against ischemic injury
Ac-PKKKRKV-Bala-TVTIFAAGVLTASLTIWKKMG-OMe [NPMB1-III-006],critical for cytoprotection,–
Ac-PKKKRKV-Bala-TVTIFVAAVLTASLTIWKKMG-OMe [NPMB1-III-007],minimal effect on cell survival,Protection of primary kidney proximal tubule cells from ischemic stress (relative kidney cell survival rate) [2]: protect; Degree of cytoprotection during ischemic stress [2]: substantial protection; Viability of primary murine kidney cells after ischemic stress ([2]; listed as Agent 7): substantially improve the viability; also recorded: protect against ischemic injury
Ac-PKKKRKV-Bala-TVTIFVAGALTASLTIWKKMG-OMe [NPMB1-III-008],moderate cytoprotective effects,–
Ac-PKKKRKV-Bala-TVTIFVAGVATASLTIWKKMG-OMe [NPMB1-III-009],critical for cytoprotection,–
Ac-PKKKRKV-Bala-TVTIFVAGVLAASLTIWKKMG-OMe [NPMB1-III-010],critical for cytoprotection,–
Ac-PKKKRKV-Bala-TVTIFVAGVLTAALTIWKKMG-OMe [NPMB1-III-011],critical for cytoprotection,–
Ac-PKKKRKV-Bala-TVTIFVAGVLTASATIWKKMG-OMe [NPMB1-III-012],moderate cytoprotective effects,Viability of primary murine kidney cells after ischemic stress ([2]; listed as Agent 12): substantially improve the viability; also recorded: protect against ischemic injury
Ac-PKKKRKV-Bala-TVTIFVAGVLTASLAIWKKMG-OMe [NPMB1-III-013],moderate cytoprotective effects,–
Ac-PKKKRKV-Bala-TVTIFVAGVLTASLQIWKKMG-OMe [NPMB1-V-003],–,Kd / NPM1 binding affinity in words [1]: low Kd values (except NPMB1-V-003
Ac-PKKKRKV-Bala-TVTIFVAGVLTASLTAWKKMG-OMe [NPMB1-III-014],minimal effect on cell survival,Protection of primary kidney proximal tubule cells from ischemic stress (relative kidney cell survival rate) [2]: protect; Degree of cytoprotection during ischemic stress [2]: substantial protection
Ac-PKKKRKV-Bala-TVTIFVAGVLTASLTIAKKMG-OMe [NPMB1-III-015],critical for cytoprotection,–
Ac-PKKKRKV-Bala-TVTIFVAGVLTASLTIWAKMG-OMe [NPMB1-III-016],critical for cytoprotection,–
Ac-PKKKRKV-Bala-TVTIFVAGVLTASLTIWKAMG-OMe [NPMB1-III-017],critical for cytoprotection,–
Ac-PKKKRKV-Bala-TVTIFVAGVLTASLTIWKKAG-OMe [NPMB1-III-018],moderate cytoprotective effects,–
Ac-PKKKRKV-Bala-TVTIFVAGVLTASLTIWKKMA-OMe [NPMB1-III-019],critical for cytoprotection,–
Ac-PKKKRKV-Bala-TVTLFVAGVLTASLTAWKKMG-OMe [NPMB1-X-002],–,Kd / NPM1 binding affinity in words [1]: relatively low Kd values
